Read-outs that look alike come from different tables or passages of the source.
How the values were obtained:
[1] = test system: S. pyogenes; assay: MIC against S. pyogenes; type: cell-based, Streptococcus pyogenes
Method: (§1) The MRS inhibitor 4 alone and in combination with mupirocin (mupirocin salt and 1:1 combination) were tested against a collection of Gram-positive pathogens.
S. pyogenes is also a significant skin pathogen and 48 recent clinical isolates were tested for their susceptibility to MRSi compound 5 alone (acetate) and in combination (1:1) with mupirocin (mupirocinate).

[2] = test system: E. faecalis; assay: MIC against E. faecalis; type: cell-based
Method: as §1
(§2) MRSi compound 5 alone and in combination with mupirocin was tested recent clinical isolates of E. faecalis (n=28) and E. faecium (n=23). Both the acetate salt and mupirocinate salts of MRSi compound 5 maintained potent activity against vancomycin-susceptible and—resistant enterococci (Tables 8, 9, and 10).

[3] = test system: S. epidermidis; assay: MIC against S. epidermidis; type: cell-based
Method: as §1
(§3) The MRS inhibitor 8 was also prepared as a fusidate and mupirocinate salt and tested for antibacterial activity against Gram-positive bacteria (Table 3). […] MRSi compound 8 alone and the fusidate and mupirocin salts were active against mupirocin-resistant S. aureus and S. epidermidis and organisms such as E. faecalis that are not susceptible to mupirocin.
(§4) The MRS inhibitor 5 acetate and mupirocin salts were tested against a collection of Gram-positive bacteria.

[4] = test system: S. aureus; assay: MIC against S. aureus strains and clinical isolates (broth microdilution); type: cell-based, Staphylococcus aureus
Method: were tested against a collection of clinical isolates of S. aureus including strains that were multi-resistant to mupirocin and to other agents such as gentamicin and oxacillin.
The acetate and mupirocin salts of the MRS inhibitor compound 5 were tested against a collection of both low and high-level mupirocin resistant clinical isolates of S. aureus (Table 6).
The bacterial strains were tested for susceptibility to mupirocin and MRSi compound 2 using the broth microdilution method in accordance with NCCLS guideline to determine their MICs.
Briefly, the MIC and checkerboard titration assays were performed with strains in microtiter trays with cation-supplemented Mueller-Hinton broth (Difco). Inocula were prepared by suspending growth from blood agar plates in sterile saline to a density equivalent to that of a 0.5 McFarland standard and were diluted […] to produce a final inoculum of 5×10^5 CFU/ml. The trays were incubated aerobically overnight. Standard quality control strains were included with each run. Fractional inhibitory concentrations (FICs) were calculated as the MIC of drug A or B in combination/MIC of drug A or B alone, and the FIC index was obtained by adding the two FICs. FIC indices were interpreted as synergistic if the values were ≦0.5, additive or indifferent if the values were >0.5 to 4, and antagonistic if the values were >4.0.

[5] = test system: S. hemolyticus; assay: MIC against S. hemolyticus; type: cell-based
Method: as §1, §3, §4

[6] = test system: E. faecium; assay: MIC against E. faecium; type: cell-based; details: Enterococcus faecium, ATCC33667; Table 8; E. faecium ATCC 33667; read-out: MIC
Method: as §2

[7] = Table 3, S. pyogenes ATCC 19615
[8] = Table 3, S. pyogenes MB143 (macrolide rest.)
[9] = Table 3, E. faecalis ATCC 29212
[10] = Table 3, S. aureus ATCC 43300 (ORSA)
[11] = Table 3, S. aureus NRS107 (mupA)

Cc1c(CNCCCNc2cc(=O)c3ccccc3[nH]2)sc(Br)c1Br [MRSI Cmpd 4 acetate, N-(4,5-Dibromo-3-methylthiophen-2-ylmethyl)-N′-(1H-quinolin-4-one)propane-1,3-diamine]
MIC ([1]; Streptococcus pyogenes, ATCC19615, Table 2, S. pyogenes ATCC 19615, read-out: MIC): 0.25 µg/mL
MIC ([1]; Streptococcus pyogenes, Table 2, S. pyogenes MB143 (macrolide rest.), read-out: MIC): 0.12 µg/mL
MIC ([2]; Enterococcus faecalis, ATCC29212, Table 2, E. faecalis ATCC 29212, read-out: MIC): ≤ 0.008 µg/mL
MIC ([2]; Enterococcus faecalis, Table 2, E. faecalis 1, read-out: MIC): 0.015 µg/mL
MIC ([2]; Enterococcus faecalis, Table 2, E. faecalis 7, read-out: MIC): ≤ 0.008 µg/mL
MIC ([3]; Staphylococcus epidermidis, Table 2, S. epidermidis NRS6, read-out: MIC): 0.5 µg/mL
MIC ([3]; Staphylococcus epidermidis, Table 2, S. epidermidis NRS7, read-out: MIC): 0.03 µg/mL
MIC ([3]; Staphylococcus epidermidis, Table 2, S. epidermidis NRS8, read-out: MIC): 0.25 µg/mL
MIC ([4]; Staphylococcus aureus, ATCC29213, Table 2, S. aureus ATCC 29213, read-out: MIC): 0.25 µg/mL
MIC ([4]; Staphylococcus aureus, ATCC43300, Table 2, S. aureus ATCC 43300 (ORSA), read-out: MIC): 0.25 µg/mL
MIC ([4]; Staphylococcus aureus, NRS107, Table 2, S. aureus NRS107 (mupA), read-out: MIC): 0.03 µg/mL
MIC ([4]; Staphylococcus aureus, Table 2, S. aureus Oxford, read-out: MIC): 0.03 µg/mL
MIC ([5]; Table 2, S. hemolyticus NRS50, read-out: MIC): 0.25 µg/mL
MIC ([5]; Table 2, S. hemolyticus NRS116, read-out: MIC): 0.5 µg/mL

CC(=CC(=O)OCCCCCCCCC(=O)O)CC1OCC(CC2OC2C(C)C(C)O)C(O)C1O.Cc1c(CNCCCNc2cc(=O)c3ccccc3[nH]2)sc(Br)c1Br (stereo not shown) [MRSi Cmpd 4 mupirocinate, N-(4,5-DIBROMO-3-METHYLTHIOPHEN-2-YLMETHYL)-N′-(1H-QUINOLIN-4-ONE)PROPANE-1,3-DIAMINE MUPIROCINATE]
MIC ([1]; Table 2, S. pyogenes ATCC 19615): 0.25 µg/mL
MIC ([1]; Table 2, S. pyogenes MB143 (macrolide rest.)): 0.25 µg/mL
MIC ([2]; Table 2, E. faecalis 1): 0.12 µg/mL
MIC ([2]; Table 2, E. faecalis 7): 0.12 µg/mL
MIC ([2]; Table 2, E. faecalis ATCC 29212): 0.06 µg/mL
MIC ([3]; Table 2, S. epidermidis NRS6): 1 µg/mL
MIC ([3]; Table 2, S. epidermidis NRS7): 0.25 µg/mL
MIC ([3]; Table 2, S. epidermidis NRS8): 1 µg/mL
MIC ([4]; Table 2, S. aureus ATCC 29213): 0.5 µg/mL
MIC ([4]; Table 2, S. aureus ATCC 43300 (ORSA)): 0.5 µg/mL
MIC ([4]; Table 2, S. aureus NRS107 (mupA)): 0.25 µg/mL
MIC ([4]; Table 2, S. aureus Oxford): 0.25 µg/mL
MIC ([5]; Table 2, S. hemolyticus NRS50): 0.5 µg/mL
MIC ([5]; Table 2, S. hemolyticus NRS116): 0.5 µg/mL

CC(=CC(=O)OCCCCCCCCC(=O)O)CC1OCC(CC2OC2C(C)C(C)O)C(O)C1O.Clc1cc(Cl)c2c(Cl)c(CNCCCNc3nc4cccnc4[nH]3)[nH]c2c1 (stereo not shown) [MRSi Cmpd 8 mupirocinate, N-(1H-IMIDAZO [4,5-B]PYRIDIN-2-YL)-N′-(3,4,6-TRICHLORO-1H—INDOL-2-YLMETHYL)-PROPANE-1,3-DIAMINE MUPIROCINATE]
MIC [1, 7]: 0.25 µg/mL
MIC [1, 8]: 0.12 µg/mL
MIC ([2]; Table 3, E. faecalis 1): 0.06 µg/mL
MIC ([2]; Table 3, E. faecalis 7): 0.12 µg/mL
MIC [2, 9]: 0.12 µg/mL
MIC ([3]; Table 3, S. epidermidis NRS6): 0.5 µg/mL
MIC ([3]; Table 3, S. epidermidis NRS7): 0.12 µg/mL
MIC ([3]; Table 3, S. epidermidis NRS8): 0.25 µg/mL
MIC ([4]; Table 3, S. aureus ATCC 29213): 0.12 µg/mL
MIC [4, 10]: 0.12 µg/mL
MIC [4, 11]: 0.12 µg/mL
MIC ([4]; Table 3, S. aureus Oxford): 0.12 µg/mL
MIC ([5]; Table 3, S. hemolyticus NRS50): 0.12 µg/mL
MIC ([5]; Table 3, S. hemolyticus NRS116): 0.25 µg/mL

CC(=O)O[C@H]1C[C@@]2(C)[C@@H](C[C@@H](O)[C@H]3[C@@]4(C)CC[C@@H](O)[C@@H](C)[C@@H]4CC[C@@]32C)/C1=C(\CCC=C(C)C)C(=O)O.Clc1cc(Cl)c2c(Cl)c(CNCCCNc3nc4ncccc4[nH]3)[nH]c2c1 [MRSi Cmpd 8 fusidate, N-(1H-IMIDAZO[4,5-B] PYRIDIN-2-YL)-N′-(3,4,6-TRICHLORO-1H-INDOL-2-YLMETHYL)-PROPANE-1,3-DIAMINE FUSIDATE]
MIC [1, 7]: 0.5 µg/mL
MIC [1, 8]: 0.5 µg/mL
MIC ([2]; Table 3, E. faecalis 1): 0.06 µg/mL
MIC ([2]; Table 3, E. faecalis 7): 0.12 µg/mL
MIC [2, 9]: 0.12 µg/mL
MIC ([3]; Table 3, S. epidermidis NRS6): 0.25 µg/mL
MIC ([3]; Table 3, S. epidermidis NRS7): 0.12 µg/mL
MIC ([3]; Table 3, S. epidermidis NRS8): 0.25 µg/mL
MIC ([4]; Table 3, S. aureus ATCC 29213): 0.12 µg/mL
MIC [4, 10]: 0.06 µg/mL
MIC [4, 11]: 0.06 µg/mL
MIC ([4]; Table 3, S. aureus Oxford): 0.06 µg/mL
MIC ([5]; Table 3, S. hemolyticus NRS50): 0.12 µg/mL
MIC ([5]; Table 3, S. hemolyticus NRS116): 0.25 µg/mL

O=c1cc(NC[C@H]2CCC[C@@H]2NCc2ccc(Cl)c(Cl)c2)[nH]c2ccccc12 [MRSi cmpd 3, 2-{[(1R, 2S)-2-(3,4-Dichlorobenzylamino)cyclopentylmethyl]amino}-1H-quinolin-4-one]
MIC ([2]; Enterococcus faecalis, ATCC 51299 / VRE, Table 8, E. faecalis ATCC 51299 (VRE), read-out: MIC): 0.5 µg/mL
MIC ([2]; Enterococcus faecalis, Table 8, E. faecalis 1, read-out: MIC): 0.12 µg/mL
MIC ([2]; Enterococcus faecalis, Table 8, E. faecalis 7, read-out: MIC): 0.5 µg/mL
MIC ([4]; Staphylococcus aureus, ATCC43300, S. aureus ATCC 43300 (ORSA), read-out: MIC): 4 µg/mL
MIC ([4]; Staphylococcus aureus, NRS 1 / VISA, S. aureus NRS1 (VISA), read-out: MIC): 4 µg/mL
MIC ([4]; Staphylococcus aureus, NRS107, S. aureus NRS107 (HL Mup rest.), read-out: MIC): 1 µg/mL
MIC ([4]; Staphylococcus aureus, S. aureus 10-420 (LL Mup. Rest.), read-out: MIC): 2 µg/mL
MIC ([4]; Staphylococcus aureus, S. aureus 14-354 (LL Mup. Rest.), read-out: MIC): 4 µg/mL
MIC ([4]; Staphylococcus aureus, S. aureus 25-670 (HL Mup. Rest.), read-out: MIC): 4 µg/mL
MIC ([4]; Staphylococcus aureus, S. aureus 31-1334 (LL Mup Rest.), read-out: MIC): 2 µg/mL
MIC ([4]; Staphylococcus aureus, S. aureus 36-1298 (LL Mup. Rest.), read-out: MIC): 1 µg/mL
MIC ([4]; Staphylococcus aureus, S. aureus 87-2797 (HL Mup. Rest.), read-out: MIC): 4 µg/mL
MIC ([4]; Staphylococcus aureus, S. aureus 87-2797 (Mup. Susc.), read-out: MIC): 2 µg/mL
MIC ([4]; Staphylococcus aureus, S. aureus 101-100 (Mup. Susc.), read-out: MIC): 2 µg/mL
MIC ([4]; Staphylococcus aureus, S. aureus LZ1 (HL Mup rest.), read-out: MIC): 2 µg/mL
MIC ([4]; Staphylococcus aureus, S. aureus LZ6 (HL Mup rest.), read-out: MIC): 2 µg/mL
MIC ([4]; Staphylococcus aureus, S. aureus LZ8 (LL Mup. Rest.), read-out: MIC): 4 µg/mL
MIC ([4]; Staphylococcus aureus, S. aureus LZ9, read-out: MIC): 2 µg/mL
MIC ([4]; Staphylococcus aureus, S. aureus LZ10, read-out: MIC): 2 µg/mL
MIC ([4]; Staphylococcus aureus, S. aureus Miles Hall, read-out: MIC): 2 µg/mL
MIC ([4]; Staphylococcus aureus, S. aureus Oxford, read-out: MIC): 2 µg/mL
MIC90 ([4]; Staphylococcus aureus, all S. aureus strains of Table 1, read-out: MIC 90): 4 µg/mL
MIC Range ([4]; all S. aureus strains of Table 1 (mupirocin-susceptible and -resistant)): 1 to 4 µg/mL
MIC [6]: 0.03 µg/mL

Clc1cc(Cl)c2c(Cl)c(CNCCCNc3nc4ncccc4[nH]3)[nH]c2c1 [MRSi Cmpd 8 acetate, N-(1H-imidazo[4,5-b]pyridin-2-yl)-N′-(3,4,6-trichloro-1H-indol-2-ylmethyl)—propane-1,3-diamine]
MIC ([1]; Streptococcus pyogenes, ATCC19615, Table 3, S. pyogenes ATCC 19615, read-out: MIC): 0.12 µg/mL
MIC ([1]; Streptococcus pyogenes, Table 3, S. pyogenes MB143 (macrolide rest.), read-out: MIC): 0.12 µg/mL
MIC ([2]; Enterococcus faecalis, ATCC29212, Table 3, E. faecalis ATCC 29212, read-out: MIC): 0.03 µg/mL
MIC ([2]; Enterococcus faecalis, Table 3, E. faecalis 1, read-out: MIC): 0.03 µg/mL
MIC ([2]; Enterococcus faecalis, Table 3, E. faecalis 7, read-out: MIC): 0.03 µg/mL
MIC ([3]; Staphylococcus epidermidis, Table 3, S. epidermidis NRS6, read-out: MIC): 0.12 µg/mL
MIC ([3]; Staphylococcus epidermidis, Table 3, S. epidermidis NRS7, read-out: MIC): 0.06 µg/mL
MIC ([3]; Staphylococcus epidermidis, Table 3, S. epidermidis NRS8, read-out: MIC): 0.12 µg/mL
MIC ([4]; Staphylococcus aureus, ATCC29213, Table 3, S. aureus ATCC 29213, read-out: MIC): 0.06 µg/mL
MIC ([4]; Staphylococcus aureus, ATCC43300, Table 3, S. aureus ATCC 43300 (ORSA), read-out: MIC): 0.03 µg/mL
MIC ([4]; Staphylococcus aureus, NRS107, Table 3, S. aureus NRS107 (mupA), read-out: MIC): 0.03 µg/mL
MIC ([4]; Staphylococcus aureus, Table 3, S. aureus Oxford, read-out: MIC): 0.03 µg/mL
MIC ([5]; Table 3, S. hemolyticus NRS50, read-out: MIC): 0.06 µg/mL
MIC ([5]; Table 3, S. hemolyticus NRS116, read-out: MIC): 0.12 µg/mL

Reference: patent US20040224981A1, “Antibacterial methods and compositions” (priority 2003, published 2004)
